In this assay the test system is H358 (KRAS G12C mutant) cells. As to the kind of experiment: Tumor cell proliferation inhibition assay (Cell Titer-Glo, 72 h). The following applies: inhibition of tumor cell proliferation, 72 hours with compound, 10% fetal bovine serum; read-out: NCI-H538 IC50(nm). Format: cell-based. How it is done:
The H358 (KRAS G^12C mutant) cells were digested, centrifuged and resuspended, and the cell density was measured with a Scepter automatic cell counter. The cells were diluted to a solution containing 44,000 cells per milliliter, and the density-adjusted cell solution was 90 microliters per well. into a 96-well culture plate. The 96-well plate was placed in a 37° C., 5% CO2 incubator. After the cells were cultured for 24 hours, different concentrations of the compounds to be tested were added. The cells were incubated with the compounds for 72 hours in the presence of 10% fetal bovine serum. Glo Luminescent Cell Viability Assay Kit (see manufacturer's instructions for details) was used to measure ATP content to assess cell growth inhibition. Briefly, 30 μl of Cell Titer-Glo reagent was added to each well, and the plate was shaken for 10 minutes to induce cell lysis. Fluoroskan
Ascent FL (Thermo) assay was used to record the fluorescent signal, and the maximum signal value was obtained from cells treated with dimethyl sulfoxide for 72 hours. The minimum signal value was obtained from the medium alone (the number of cells was zero), and the % inhibition rate=(the maximum signal value compound signal value)/(the maximum signal value—the minimum signal value×100%, and the data were processed using Graphpadprism 5 software. By sigmoid Dose-response curve fitting to calculate the IC50 value. “A” means IC50≤50 nM; “B” means 50<IC50≤500 nM; “C” means 500<IC50≤2000 nM; “D” means 2000 nM<IC50
(In general: ATP-based viability assays read luminescence as a measure of living cells.)
As a reminder, the IC50 is the concentration that inhibits the measured activity by half. Regarding “6-Chloro-74(3-hydroxy-8-fluoronaphthyl)-8-fluoro-4-(((S)-4-(2-fluoroacryloyl)-3-carbonitrileethylpiperazine)-1-yl)-2-(((2R,7aS)-2-fluorotetrahydro-1H-pyrincycline-7a(5H)-yl)methoxy)quinazoline [Compound 43]”, the half-maximal inhibitory concentration (IC50) was at most 50 nM.
Then “6-Chloro-7-(8-methylnaphthyl)-8-fluoro-4-(((R)-4-acryloyl-2-methylpiperazine)-1-yl)-2-(((2R,7aS)-2-fluorotetrahydro-1H-pyrinyl-7a(5H)-yl)methoxy)quinazoline [Compound 73]”, with at most 50 nM.
The result for `C=CC(=O)N1CCN(c2nc(OC[C@@]34CCCN3C[C@H](F)C4)nc3nc(-c4cccc5cccc(C)c45)ccc23)[C@H](C)C1` [Compound 89, 7-(8-Methylnaphthyl)-4-(((R)-4-Acryloyl-2-methylpiperazine)-1-yl)-2-(((2R,7aS)-2-fluorotetrahydro-1H-pyrincycl-7a(5H)-yl)methoxy)pyridine[2,3-d]lopyrimidine] reads at most 50 nM; that for `C=C(F)C(=O)N1CCN(c2nc(OC[C@@]34CCCN3C[C@H](F)C4)nc3nc(-c4cc(O)cc5cccc(F)c45)c(F)cc23)[C@H](C)C1` [Compound 34, 7-(3-Hydroxy-8-fluoronaphthyl)-6-fluoro-4-(((R)-4-(2-fluoroacryloyl)-2-methylpiperazine)-1-yl)-2-(((2R,7aS)-2-fluorotetrahydro-1H-pyrincyclin-7a(5H)-yl)methoxy)pyridine[2,3-d]lopyrimidine], at most 50 nM.
The result for “7-(8-Fluoronaphthalene)-4-(((R)-4-Acryloyl-3-carbonitrileethylpiperazine)-1-yl)-24(1-(N,N-dimethylamineyl)methylcyclopropan-1-yl)methoxy)pyridine[2,3-d]lopyrimidine [Compound 21]” reads at most 50 nM; that for “6-Chloro-7-(8-fluoronaphthyl)-8-fluoro-4-(((R)-4-acryloyl-2-methylpiperazine)-1-yl)-2-(((2R,7aS)-2-fluorotetrahydro-1H-pyrincycline-7a(5H)-yl)methoxy)quinazoline [Compound 37]”, at most 50 nM.
Turning to “7-(8-Methylnaphthalene)-4-(((R)-4-Acryloyl-3-carbonitrileethylpiperazine)-1-yl)-2-(((1-(pyrrolidin-1-yl))methylcyclopropan-1-yl)methoxy)pyridine[2,3-d]lopyrimidine [Compound 18]”, the 50% inhibitory concentration (IC50) was at most 50 nM.
Then “7-(8-Fluoronaphthyl)-6-fluoro-4-(((S)-4-(2-acryloyl)-3-carbonitrileethylpiperazine)-1-yl)-2-((((S)-1-(methyl-d3)pyrrolidin-2-yl)methoxy)pyridine[2,3-d]lopyrimidine [Compound 9]”, with at most 50 nM.
On to “7-(8-Chloronaphthalene)-4-(((R)-4-Acryloyl-3-carbonitrileethylpiperazine)-1-yl)-24(1-(N,N-dimethylaminyl)methylcyclopropan-1-yl)methoxy)pyridine[2,3-d]lopyrimidine [Compound 20]”, for which the IC50 is at most 50 nM.
For the compound `C=CC(=O)N1CCN(c2nc(OC[C@@]34CCCN3CC(F)(F)C4)nc3c(F)c(-c4cccc5cccc(C)c45)ccc23)C[C@@H]1CC#N` [Compound 67], the IC50 was at most 50 nM.
Then “7-(8-Fluoronaphthyl)-6-fluoro-4-(((R)-4-acryloyl-2-methylpiperazine)-1-yl)-2-(((S)-2,2-difluorotetrahydro-1H-pyrincycl-7a(5H)-yl)methoxy)pyridine[2,3-d]lopyrimidine [Compound 79]”, with at most 50 nM; and `C=C(F)C(=O)N1CCN(c2nc(OC[C@@]34CCCN3CC(F)(F)C4)nc3c(F)c(-c4cccc5cccc(F)c45)c(Cl)cc23)C[C@@H]1CC#N` [Compound 78, 6-Chloro-7-(8-fluoronaphthyl)-8-fluoro-4-(((S)-4-(2-fluoroacryloyl)-3-carbonitrileethylpiperazine)-1-yl)-2-(((S)-2,2-difluorotetrahydro-1H-pyrincycline-7a(5H)-yl)methoxy)quinazoline], with at most 50 nM.
The result for “7-(8-Fluoronaphthyl)-8-fluoro-4-(((S)-4-acryloyl-3-carbonitrileethylpiperazine)-1-yl)-2-(((S)-2,2-Difluorotetrahydro-1H-pyrinyl-7a(5H)-yl)methoxy)quinazoline [Compound 63]” reads at most 50 nM.
Then `C=C(F)C(=O)N1C2CCC1CN(c1nc(OC[C@@]34CCCN3C[C@H](F)C4)nc3nc(-c4cc(O)cc5cccc(F)c45)c(F)cc13)C2` [Compound 32, 7-(3-Hydroxy-8-fluoronaphthyl)-6-fluoro-4-(8-(2-fluoroacryloyl)-3,8-diazabicyclo[3.2.1]octan-3-yl)-2-(((2R,7aS)-2-fluorotetrahydro-1H-pyrincycl-7a(5H)-yl)methoxy)pyridine[2,3-d]lopyrimidine], with at most 50 nM; and “7-(8-Chloronaphthalene)-4-(((R)-4-Acryloyl-3-carbonitrileethylpiperazine)-1-yl)-2-(((1-(pyrrolidin-1-yl)methylcyclopropan-1-yl)methoxy)pyridine[2,3-d]lopyrimidine [Compound 16]”, with at most 50 nM; and “7-(8-Fluoronaphthalene)-4-(((R)-4-Acryloyl-2-methylpiperazine)-1-yl)-24(1-(N,N-dimethylamino)) methylcyclopropan-1-yl)methoxy)pyridine[2,3-d]lopyrimidine [Compound 24]”, with at most 50 nM.
With “7-(8-Fluoronaphthyl)-8-fluoro-4-(((S)-4-(2-fluoro acryloyl)-3-c arbonitrileethylpiperazine)-1-yl)-2-((tetrakis Hydrogen-1H-pyrinyl-7a(5H)-yl)methoxy)quinazoline [Compound 88]”, the IC50 was at most 50 nM.
The result for `C=C(F)C(=O)N1CCN(c2nc(OC[C@@]34CCCN3C[C@H](F)C4)nc3nc(-c4cccc5cccc(F)c45)c(F)cc23)[C@H](C)C1` [Compound 30] reads at most 50 nM.
As to `C=C(F)C(=O)N1CCN(c2nc(OC[C@@]34CCCN3C[C@H](F)C4)nc3c(F)c(-c4cc(O)cc5cccc(F)c45)ccc23)C[C@@H]1CC#N` [Compound 52], the IC50 is at most 50 nM.
Consider `C=CC(=O)N1CCN(c2nc(OC[C@@]34CCCN3C[C@H](F)C4)nc3c(F)c(-c4cccc5cccc(F)c45)ccc23)[C@H](C)C1` [Compound 47, 7-(8-Fluoronaphthyl)-8-fluoro-4-(((R)-4-acryloyl-2-methylpiperazine)-1-yl)-2-(((2R,7aS)-2-fluorotetrahydro-1H-pyrincyclo-7a(5H)-yl)methoxy)quinazoline], for which the IC50 was at most 50 nM.
Then “7-(8-Chloronaphthalene)-4-(((R)-4-Acryloyl-2-methylpiperazine)-1-yl)-2-(((1-(pyrrolidin-1-yl)methancycloprop an-1-yl)methoxy)pyridine[2,3-d]lopyrimidine [Compound 14]”, with at most 50 nM; and `C=C(F)C(=O)N1CCN(c2nc(OCC34CCCN3CCC4)nc3c(F)c(-c4cccc5cccc(F)c45)ccc23)C[C@@H]1CC#N` [Compound 58, 7-(8-fluoronaphthyl)-8-fluoro-4-(((S)-4-(2-fluoroacryloyl)-3-carbonitrileethylpiperazine)-1-yl)-2-((tetrakis Preparation of Hydro-1H-Pyrin-7a(5H)-yl)methoxy)quinazoline], with at most 50 nM; and “7-(8-Methylnaphthyl)-6-fluoro-4-(((R)-4-acryloyl-2-methylpiperazine)-1-yl)-1-y1)-2-(((S)-2,2-difluorotetrahydro-1H-pyrincyclo-7a(5H)-yl)methoxy)pyridine[2,3-d]lopyrimidine [Compound 80]”, with at most 50 nM.
The result for `C=CC(=O)N1CCN(c2nc(OCC34CCCN3CCC4)nc3c(F)c(-c4cccc5cccc(F)c45)ccc23)C[C@@H]1CC#N` [Compound 54, 7-(8-fluoronaphthyl)-8-fluoro-4-(((S)-4-(acryloyl)-3-carbonitrileethylpiperazine)-1-yl)-2-((tetrahydro-1H-pyrin-7a(5H)-yl)methoxy)quinazoline] reads at most 50 nM; that for `C=C(F)C(=O)N1CCN(c2nc(OC[C@@]34CCCN3CC(F)(F)C4)nc3nc(-c4cc(O)cc5cccc(F)c45)ccc23)C[C@@H]1CC#N` [Compound 91, 7-(3-Hydroxy-8-fluoronaphthyl)-4-(((S)-4-(2-fluoroacryloyl)-3-carbonitrileethylpiperazine)-1-yl)-2-(((S)-2,2-difluorotetrahydro-1H-pyrincycl-7a(5H)-yl)methoxy)pyridine[2,3-d]lopyrimidine], at most 50 nM.
The result for `C=CC(=O)N1CCN(c2nc(OC[C@@]34CCCN3CC(F)(F)C4)nc3c(F)c(-c4cc(O)cc5cccc(F)c45)ccc23)[C@H](C)C1` [Compound 60, 7-(3-Hydroxy-8-fluoronaphthyl)-8-fluoro-4-(((R)-4-acryloyl-2-methylpiperazine)-1-yl)-2-(((S)-2,2-difluorotetrahydro-1H-pyrinyl-7a(5H)-yl)methoxy)quinazoline] reads at most 50 nM; that for “7-(8-Fluoronaphthalene)-4-(((R)-4-Acryloyl-3-carbonitrileethylpiperazine)-1-y1)-2-(((1-(pyrrolidin-1-yl)methylcyclopropan-1-yl)methoxy)pyridine[2,3-d]lopyrimidine [Compound 15]”, at most 50 nM.

The values are drawn from patent US20240182470A1, “KRASG12C MUTANT PROTEIN INHIBITOR, PREARATION AND USE THEREOF” (YA THERAPEUTICS INC, priority 2021, published 2024).
